The test system of this test is IL-1β release, THP-1 cells. In words: IL-1β release assay in differentiated THP-1 cells stimulated with BzATP (Example 9). The class given is cell-based. To be noted: Homo sapiens; for inhibition at 0.3 µM: 0.3 μM compound ("+" symbols); for inhibition at 0.3 µM / inhibition at 0.1 µM: differentiated THP-1 cells, 250 uM BzATP, read-out: IL-1β% Inhib. @ 0.3 or 0.1 μM; for IC50: THP-1 cells, BzATP 250 uM, four parameter logistic fit; for inhibition at 0.1 µM: 0.1 μM compound ("*" symbols). In short, it runs like this:
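THP-1 cells differentiated 16 h with 100 ng/mL LPS + 100 ng/mL IFN-γ, re-primed 2 h with fresh LPS 100 ng/mL, pretreated 30 min with compound, then stimulated with BzATP 250 uM final for 45 min. Supernatant IL-1β by ELISA; background-adjusted % inhibition, IC50 from four-parameter logistic fit.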

The IC50 is the concentration at which inhibition is half-maximal. With `CS(=O)(=O)N1CCc2c(ccc(Cl)c2NC(=O)Cc2ccc(C(F)(F)F)cc2)C1` [Compound 3050], the inhibition at 0.3 µM was in the range of 26 to 50% and the IC50 is 0.492 µM.
Turning to `O=C(Cc1cccc(C(F)(F)F)c1F)Nc1c(Cl)ccc2c1CCN(C(=O)c1ccc(Cl)cc1Cl)C2` [Compound 3163], the inhibition at 0.3 µM was 26 to 50%.
`O=C(Cc1ccc(C(F)(F)F)c(F)c1)Nc1cccc2c1CCN(CC(O)CF)C2` (stereo not shown) [Compound 3064]: the inhibition at 0.3 µM is 0 to 25% and the IC50 is more than 1 µM.
In turn, `Cc1ccc2c(c1NC(=O)Cc1ccc(C(F)(F)F)c(F)c1)CCN(C(=O)C1(O)CC1)C2` [Compound 3468] had an IC50 of 0.0698 µM.
With `O=C(Cc1ccc(C(F)(F)F)c(F)c1)Nc1cccc2c1CCN(C(=O)COC1CCNCC1)C2` [Compound 3052], the inhibition at 0.3 µM is 0 to 25% and the IC50 came out at 0.891 µM.
For `Cc1cc(F)ccc1S(=O)(=O)N1CCc2c(ccc(Cl)c2NC(=O)Cc2ccc(C(F)(F)F)cc2)C1` [Compound 3010], the inhibition at 0.1 µM was in the range of 0 to 25%.
Take `O=C(Cc1ccc(C(F)(F)F)c(F)c1)Nc1c(Cl)ccc2c1CCN(C(=O)c1cccnc1)C2` [Compound 3079]: the inhibition at 0.3 µM lay in the range of 0 to 25%.
Consider `CCS(=O)(=O)N1CCc2c(ccc(C)c2NC(=O)Cc2ccc(C(F)(F)F)c(F)c2)C1` [Compound 3433], for which it took 0.0252 µM to reach half-maximal inhibition (IC50).
Take `O=C(Cc1ccc(C(F)(F)F)c(F)c1)Nc1cccc2c1CCN(CC(O)c1ccc(F)cc1)C2` (stereo not shown) [Compound 3065, N-{2-[2-(4-Fluoro-phenyl)-2-hydroxy-ethyl]-1,2,3,4-tetrahydro-isoquinolin-5-yl}-2-(3-fluoro-4-trifluoromethyl-phenyl)-acetamide]: the inhibition at 0.3 µM fell in the range of 51 to 75% and the IC50 is 0.206 µM.
Turning to `N#Cc1cccc(S(=O)(=O)N2CCc3c(ccc(Cl)c3NC(=O)Cc3ccc(C(F)(F)F)cc3)C2)c1` [Compound 3028], the inhibition at 0.1 µM lay within 0 to 25%.
Turning to `O=C(Cc1cccc(C(F)(F)F)c1F)Nc1c(Cl)ccc2c1CCN(C(=O)c1ccc(F)cc1)C2` [Compound 3154], the inhibition at 0.3 µM was 0 to 25%.
With `O=C(Cc1ccc(C(F)(F)F)cc1)Nc1c(Cl)ccc2c1CCN(S(=O)(=O)c1ccccc1F)C2` [Compound 3002], the inhibition at 0.1 µM is 0 to 25%.
Regarding `O=C(Cc1ccc(C(F)(F)F)cc1)Nc1c(Cl)ccc2c1CCN(S(=O)(=O)c1ccc(Cl)cc1F)C2` [Compound 3016], the inhibition at 0.1 µM is 0 to 25%.
Take `Cc1ccc2c(c1NC(=O)Cc1ccc(C(F)(F)F)c(F)c1)CCN(C(=O)[C@H]1CCCN1)C2` [Compound 3061, 2-(3-Fluoro-4-trifluoromethyl-phenyl)-N-[6-methyl-2-((R)-pyrrolidine-2-carbonyl)-1,2,3,4-tetrahydro-isoquinolin-5-yl]-acetamide]: the inhibition at 0.3 µM was not below 76% and half-maximal inhibition (IC50) was put at 0.0351 µM.
For `O=C(Cc1ccc(C(F)(F)F)c(F)c1)Nc1cccc2c1CCN(C(=O)C1CCOC1)C2` (stereo not shown) [Compound 3039], the inhibition at 0.3 µM is 26 to 50% and half-maximal inhibition (IC50) required 0.443 µM.
Regarding `COc1cc(OC)cc(C(=O)N2CCc3c(ccc(Cl)c3NC(=O)Cc3cccc(C(F)(F)F)c3F)C2)c1` [Compound 3149], the inhibition at 0.3 µM is 26 to 50%.
As for `Cc1ccc2c(c1NC(=O)Cc1cccc(C(F)(F)F)c1F)CCN(C(=O)[C@H]1CCCN1)C2` [Compound 3062], the inhibition at 0.3 µM is not below 76% and half-maximal inhibition (IC50) was put at 0.0767 µM.
With `Cc1ccc(F)c(C(=O)N2CCc3c(ccc(Cl)c3NC(=O)Cc3cccc(C(F)(F)F)c3F)C2)c1Cl` [Compound 3171], the inhibition at 0.3 µM was in the range of 0 to 25%.
Consider `CCC(=O)N1CCc2c(ccc(C)c2NC(=O)Cc2ccc(C(F)(F)F)c(F)c2)C1` [Compound 3203], for which the IC50 was 0.0858 µM.
In the case of `O=C(Cc1ccc(C(F)(F)F)cc1)Nc1c(Cl)ccc2c1CCN(S(=O)(=O)c1ccccc1Cl)C2` [Compound 3001, N-[6-Chloro-2-(2-chloro-benzenesulfonyl)-1,2,3,4-tetrahydro-isoquinolin-5-yl]-2-(4-trifluoromethyl-phenyl)-acetamide], the inhibition at 0.3 µM was not below 76% and it took 0.0493 µM to reach half-maximal inhibition (IC50).
On to `O=C(Cc1cccc(C(F)(F)F)c1F)Nc1c(Cl)ccc2c1CCN(C(=O)CC1CCCC1)C2` [Compound 3166], for which the inhibition at 0.3 µM was in the range of 0 to 25%.
On to `N[C@@H](Cc1ccccc1)C(=O)N1CCc2c(cccc2NC(=O)Cc2ccc(C(F)(F)F)c(F)c2)C1` [Compound 3056, N-[2-((S)-2-Amino-3-phenyl-propionyl)-1,2,3,4-tetrahydro-isoquinolin-5-yl]-2-(3-fluoro-4-trifluoromethyl-phenyl)-acetamide], for which the inhibition at 0.3 µM is not below 76% and the IC50 was 0.0563 µM.
`Cc1ccc2c(c1NC(=O)Cc1ccc(C(F)(F)F)c(F)c1)CCN(S(=O)(=O)CC(F)(F)F)C2` [Compound 3406]: the IC50 is 0.107 µM.
As to `O=C(Cc1ccc(C(F)(F)F)c(F)c1)Nc1c(Cl)ccc2c1CCN(C(=O)c1ccc(C(F)(F)F)nc1)C2` [Compound 3132], the inhibition at 0.3 µM lay within 0 to 25%.
In the case of `Cc1ccc(F)c(C(=O)N2CCc3c(ccc(Cl)c3NC(=O)Cc3ccc(C(F)(F)F)c(F)c3)C2)c1Cl` [Compound 3107], the inhibition at 0.3 µM was in the range of 0 to 25%.
For `O=C(Cc1ccc(C(F)(F)F)c(F)c1)Nc1cccc2c1CCN(C(=O)C1CC1)C2` [Compound 3041], the inhibition at 0.3 µM was 0 to 25% and the IC50 is 0.495 µM.
As for `O=C(Cc1cccc(C(F)(F)F)c1F)Nc1c(Cl)ccc2c1CCN(C(=O)C1CCCC1)C2` [Compound 3144], the inhibition at 0.3 µM lay within 0 to 25%.
As to `O=C(Cc1ccc(C(F)(F)F)c(F)c1)Nc1c(Cl)ccc2c1CCN(C(=O)c1cc(Cl)cc(Cl)c1)C2` [Compound 3131], the inhibition at 0.3 µM lay within 0 to 25%.
`CC(C)(C)c1ccc(C(=O)N2CCc3c(ccc(Cl)c3NC(=O)Cc3ccc(C(F)(F)F)c(F)c3)C2)cc1` [Compound 3124]: the inhibition at 0.3 µM lay in the range of 0 to 25%.
On to `O=C(Cc1ccc(C(F)(F)F)cc1)Nc1c(Cl)ccc2c1CCN(S(=O)(=O)c1cccc(F)c1)C2` [Compound 3003], for which the inhibition at 0.1 µM is 0 to 25%.
`O=C(Cc1cccc(C(F)(F)F)c1F)Nc1c(Cl)ccc2c1CCN(C(=O)c1cccc3ccccc13)C2` [Compound 3185]: the inhibition at 0.3 µM lay within 0 to 25%.
For the compound `O=C(Cc1cccc(C(F)(F)F)c1F)Nc1c(Cl)ccc2c1CCN(C(=O)C1CCCCC1)C2` [Compound 3147], the inhibition at 0.3 µM was in the range of 0 to 25%.
Regarding `O=C(Cc1ccc(C(F)(F)F)c(F)c1)Nc1cccc2c1CCN(CC(O)CCl)C2` (stereo not shown) [Compound 3057, N-[2-(3-Chloro-2-hydroxy-propyl)-1,2,3,4-tetrahydro-isoquinolin-5-yl]-2-(3-fluoro-4-trifluoromethyl-phenyl)-acetamide], the inhibition at 0.3 µM lay in the range of 26 to 50% and it took 0.427 µM to reach half-maximal inhibition (IC50).
On to `O=C(Cc1ccc(C(F)(F)F)c(F)c1)Nc1cccc2c1CCN(CC(O)c1ccc(Cl)cc1)C2` (stereo not shown) [Compound 3066], for which the inhibition at 0.3 µM was in the range of 51 to 75% and the IC50 was found to be 0.219 µM.
As to `O=C(Cc1ccc(C(F)(F)F)c(F)c1)Nc1c(Cl)ccc2c1CCN(C(=O)c1ccc(Oc3ccccc3)nc1)C2` [Compound 3133], the inhibition at 0.3 µM was in the range of 0 to 25%.
Same read-out and setting: in the case of `Cc1cccc(C(=O)N2CCc3c(ccc(Cl)c3NC(=O)Cc3cccc(C(F)(F)F)c3F)C2)c1` [Compound 3140] it was 0 to 25%; in that of `Cc1ccc(C(=O)N2CCc3c(ccc(Cl)c3NC(=O)Cc3cccc(C(F)(F)F)c3F)C2)cc1` [Compound 3183], 0 to 25%.

These data come from patent US20100298285A1, “Biclycloheteroaryl Compounds as P2x7 Modulators and Uses Thereof” (priority 2006, published 2010).
